In patent US11939344B2, “Spirocyclic compounds” (ASTRAZENECA AB, priority 2021, dated 2024):

Assays:
HCT116 KO-MTAP cells [1] = experiment: PRMT5 cell SDMA assay, MTAP KO cells; format: cell-based; settings: Homo sapiens
HCT116 WT cells [2] = experiment: PRMT5 cell SDMA assay, MTAP WT cells; format: cell-based; settings: Homo sapiens
HCT116 KO-MTAP cells [3] = experiment: Cell proliferation assay (Alamar Blue), MTAP KO cells; format: cell-based; settings: Homo sapiens
Description: (§1) Cell Proliferation Assays:
(§2) A day 0 plate is created in parallel but not dosed, after plating 4 μl of Alamar Blue (Thermo #DAL1100) and incubate for 3 h at 37 C, 5% CO2.
(§3) The dosed cell plates were then incubated for 5 days at 37° C. before adding Alamar blue and being read in the Envision following same protocol as for first plate.

HCT116 WT cells [4] = experiment: Cell proliferation assay (Alamar Blue), MTAP WT cells; format: cell-based; settings: Homo sapiens, HCT-116, 120 h, 5 days
Description: as §1, §2, §3

[5] = molecular target: human heterooctameric PRMT5:MEP50 enzyme complex (Homo sapiens, UniProt O14744); experiment: biochemical
Description: MTase-GIlo™ PRMT5 Luminescence Assays (PRMT5 Enzyme Assays)
An Mtase-Glo™ methyltransferase Luminescence assay was employed to monitor the conversion of S-Adenosyl methionine (SAM) to S-Adenosyl Homocysteine (SAH) by recombinant PRMT5:MEP50 enzyme complex in the presence or absence of the 5′-Methylthioadenosine (MTA). […] The reaction buffer contained 20 mM Bicine (pH 7.60), 25 mM NaCl, 1 mM DTT and 0.1% (w/v) CHAPS.
All wells were backfilled with the appropriate volume of DMSO to achieve a final concentration of 1% v/v in a 3 μl final assay volume.
After 5 h incubation in room temperature, 1 μL of 0.5% (v/v) TFA was added to each well to quench the methylation reaction.
Data was analysed and the IC50 values were calculated using the Genedata Screener® software.

[6] = HCT-116, HCT116 MTAP KO, 48 hours, read-out: Cell SDMA IC50 (μM) (MTAP KO)
[7] = HCT-116, HCT116 MTAP WT, 48 hours, read-out: Cell SDMA IC50 (μM) (MTAP WT)
[8] = HCT-116, 120 h, HCT116 MTAP KO, 5 days, read-out: Cell proliferation IC50 (μM) (MTAP KO)

Sequence of human heterooctameric PRMT5:MEP50 enzyme complex (O14744 whole entry): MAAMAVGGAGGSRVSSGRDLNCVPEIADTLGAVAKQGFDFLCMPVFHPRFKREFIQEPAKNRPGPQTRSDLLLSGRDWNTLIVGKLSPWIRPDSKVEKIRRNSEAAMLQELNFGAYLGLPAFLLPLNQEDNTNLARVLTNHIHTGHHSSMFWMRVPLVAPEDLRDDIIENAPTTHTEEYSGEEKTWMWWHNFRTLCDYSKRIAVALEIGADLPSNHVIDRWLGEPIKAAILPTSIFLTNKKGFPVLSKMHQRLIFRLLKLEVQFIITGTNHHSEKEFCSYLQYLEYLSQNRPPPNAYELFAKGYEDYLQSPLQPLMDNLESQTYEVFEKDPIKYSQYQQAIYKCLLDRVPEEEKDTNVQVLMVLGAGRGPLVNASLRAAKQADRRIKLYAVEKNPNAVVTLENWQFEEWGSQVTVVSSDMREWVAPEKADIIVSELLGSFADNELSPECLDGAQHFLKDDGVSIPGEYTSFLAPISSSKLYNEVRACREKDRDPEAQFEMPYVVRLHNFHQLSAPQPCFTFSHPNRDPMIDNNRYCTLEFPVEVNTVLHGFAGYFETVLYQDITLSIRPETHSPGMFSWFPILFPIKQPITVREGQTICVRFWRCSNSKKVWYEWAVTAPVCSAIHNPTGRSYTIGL
Sequence of human heterooctameric PRMT5:MEP50 enzyme complex (Q9BQA1 whole entry partner): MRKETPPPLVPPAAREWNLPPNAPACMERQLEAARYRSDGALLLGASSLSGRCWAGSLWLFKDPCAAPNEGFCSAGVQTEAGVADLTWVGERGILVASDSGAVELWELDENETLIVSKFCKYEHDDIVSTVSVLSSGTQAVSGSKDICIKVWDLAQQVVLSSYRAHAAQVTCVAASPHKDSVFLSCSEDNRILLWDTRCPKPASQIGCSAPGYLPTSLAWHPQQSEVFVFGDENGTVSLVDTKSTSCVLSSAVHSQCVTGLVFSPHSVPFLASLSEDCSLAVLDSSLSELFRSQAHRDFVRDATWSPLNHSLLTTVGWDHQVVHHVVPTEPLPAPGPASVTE

| SMILES | IC50 (HCT116 KO-MTAP cells [1]; HCT-116, column 4, read-out: Cell SDMA IC50, MTAP knock out HCT116 cells) | IC50 (HCT116 KO-MTAP cells [1]; [6]) | IC50 (HCT116 WT cells [2]; HCT-116, column 5, read-out: Cell SDMA IC50, HCT116 wild type cells) | IC50 (HCT116 WT cells [2]; [7]) | IC50 (HCT116 KO-MTAP cells [3]; [8]) | IC50 (HCT116 KO-MTAP cells [3]; HCT-116, column 6, read-out: Cell proliferation IC50 in MTAP KO cells) | IC50 (HCT116 WT cells [4]) | IC50 [5] |
| --- | --- | --- | --- | --- | --- | --- | --- | --- |
| C#CCN1CC[C@@]2(C1=O)c1ccc(F)cc1C(=O)N2Cc1cc2nc(N)c(F)cc2[nH]1 [Example 3, (S)-2-((5-Amino-6-fluoro-1H-pyrrolo[3,2-b]pyridin-2-yl)methyl)-5-fluoro-1′-(prop-2-yn-1-yl)spiro[isoindoline-1,3′-pyrrolidine]-2′,3-dione] | 0.013 µM | 0.013 µM | 0.56 µM | 0.56 µM | 0.32 µM | 0.32 µM | > 30 µM | 0.061 µM |
| CC1(CN2CC[C@@]3(C2=O)c2ccc(F)cc2C(=O)N3Cc2cc3nc(N)cc(C#N)c3[nH]2)CC1 [Example 26, (S)-5-Amino-2-((5-fluoro-1′-((1-methylcyclopropyl)methyl)-2′,3-dioxospiro[isoindoline-1,3′-pyrrolidin]-2-yl)methyl)-1H-pyrrolo[3,2-b]pyridine-7-carbonitrile] |  | 0.0031 µM |  | 0.093 µM | 0.29 µM |  | 2.3 µM |  |
| Nc1nc2cc(CN3C(=O)c4cc(F)ccc4[C@]34CCN(CCOC(F)(F)F)C4=O)[nH]c2cc1Cl [Example 27, (S)-2-((5-Amino-6-chloro-1H-pyrrolo[3,2-b]pyridin-2-yl)methyl)-5-fluoro-1′-(2-(trifluoromethoxy)ethyl)spiro[isoindoline-1,3′-pyrrolidine]-2′,3-dione] |  | 0.0047 µM |  | 0.17 µM | 0.36 µM |  | > 30 µM |  |
| Cc1cc(N)nc2[nH]c(CN3C(=O)c4cc(F)ccc4[C@]34CCN(Cc3cc(F)c(F)cc3F)C4=O)cc12 [Example 28, (S)-2-((6-Amino-4-methyl-1H-pyrrolo[2,3-b]pyridin-2-yl)methyl)-5-fluoro-1′-(2,4,5-trifluorobenzyl)spiro[isoindoline-1,3′-pyrrolidine]-2′,3-dione] |  | 0.0028 µM |  | 0.071 µM | 0.13 µM |  | 1.4 µM |  |
